These results are taken from publication PMC11458808, “Identification and development of a series of disubstituted piperazines for the treatment of Chagas disease” (European Journal of Medicinal Chemistry, 2022).

Each structure is given as a SMILES string. Values after ≈ are worked out from the molar mass of the structure shown. A value given as a limit tells only on which side of the number the result lay.

Data set [1] deals with intracellular T. cruzi X10/7 A1 amastigotes. Put plainly: Intracellular T. cruzi assay. It counts as cell-based, Trypanosoma cruzi. To be noted: Trypanosoma cruzi; potency against intracellular T. cruzi amastigotes; at least three independent replicates, standard deviations ≤0.2; read-out: T. cruzi (pEC50) (converted). The protocol: 1.1 Intracellular T. cruzi assay: Potency against intracellular T. cruzi X10/7 A1 amastigotes was determined as described previously with as sole modification that the compound treatment duration was increased from 72h to 96h.

In data set [2] the test system is T. cruzi infected Vero cells. Nature of the data set: Washout assay. It counts as cell-based, Trypanosoma cruzi. To be noted: for Relapse Day: 8 days treatment. The protocol: (§1) (Supplementary Information, Fig. S1). We tested 1 in a T. cruzi washout assay to assess the compound's ability to clear all parasites in vitro. In this experiment, T. cruzi, cultured in Vero cells were treated with compound 1 at 20- to 30-fold the EC50 for 8 days (with compound being re-supplemented after 4 days). After treatment, the culture medium containing compound 1 was removed, the cell monolayer was washed extensively and then incubated with fresh medium containing no compound 1. […] The same result was obtained in three independent experiments (Supplementary Information, Table S1). […] We therefore ran a 4-day PK study on 1, dosing at 50 mg/kg twice daily. As the intrinsic clearance was very high, compound 1 was co-dosed with 1-ABT (1-aminobenzotriazole) to inhibit CYP-mediated degradation and maximise exposure. […] As this was a novel series with an unknown mechanism of action, the PKPD drivers were unknown, so this coverage was considered suitable for progression to an animal model of Chagas disease. Compound 1 was dosed twice daily at 50 mg/kg for 5 days in an acute Chagas disease mouse efficacy study. This mouse model, developed by the Kelly laboratory, is able to distinguish between benznidazole (clinically effective) and posaconazole (clinically ineffective).
1.2 Washout assay: Vero cells were infected overnight at MOI 5 with T. cruzi X10/7 A1 trypomastigotes in MEM media (Gibco) containing 10% FCS (Hyclone) followed by washing of the monolayer to remove any extracellular trypomastigotes. 24 h later, infected cells were trypsinised and plated in T25 flasks in presence of compounds at the indicated concentrations and incubated for 8 days in MEM media (Gibco) containing 1% FCS. Four days into the treatment the media was replaced with fresh compound-containing media. After the treatment period, monolayers were washed extensively. The cultures were then maintained, replacing media twice weekly, until trypomastigotes could be observed by light microscopy. Observations were carried out twice weekly for up to 60 days post washout.
Results for three independent washout experiments (experiment c is reported in the main manuscript). T. cruzi infected Vero cells were treated for 8 days at the indicated concentrations (compounds replenished after 4 days), followed by extensive washing to remove compounds and incubation until parasites were observed microscopically. ^a day after washout of compounds on which egressed parasites were detected first.

Data set [3] deals with T. cruzi CYP51 (Trypanosoma cruzi, UniProt Q7Z1V1). Nature of the data set: CYP51 assay. The format is biochemical. The conditions noted are these: read-out: T.cruzi CYP51 (pIC50) (converted). The protocol: 1.4 CYP51 assay: Potency against T. cruzi CYP51 was determined as previously described in [3].
T. cruzi CYP51, sequence (Q7Z1V1 whole entry): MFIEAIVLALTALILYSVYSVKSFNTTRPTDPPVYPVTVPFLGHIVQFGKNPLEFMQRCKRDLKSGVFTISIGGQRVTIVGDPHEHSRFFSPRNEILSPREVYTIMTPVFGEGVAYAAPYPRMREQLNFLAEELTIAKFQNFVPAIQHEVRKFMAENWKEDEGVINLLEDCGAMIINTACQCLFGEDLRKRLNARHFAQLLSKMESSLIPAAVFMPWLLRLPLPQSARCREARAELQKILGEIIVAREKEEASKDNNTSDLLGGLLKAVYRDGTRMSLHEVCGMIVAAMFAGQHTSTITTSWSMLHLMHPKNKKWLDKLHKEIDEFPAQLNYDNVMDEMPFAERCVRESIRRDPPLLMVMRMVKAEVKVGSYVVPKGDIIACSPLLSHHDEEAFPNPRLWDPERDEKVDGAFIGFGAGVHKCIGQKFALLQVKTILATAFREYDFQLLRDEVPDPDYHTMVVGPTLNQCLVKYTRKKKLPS
Data set [4] is described as follows: Intrinsic clearance in mouse liver microsomes. The format is in vitro ADME. To be noted: mouse liver microsomal intrinsic clearance. On the procedure:
2.2 Intrinsic clearance: This assay was conducted as previously described in [5].
In general terms: Liver microsomes are vesicles of endoplasmic reticulum, rich in cytochrome P450 enzymes.

Data set [5] is described as follows: Aqueous (kinetic) solubility by CAD. The format is physicochemical. To be noted: kinetic solubility measured by CAD. The protocol: 2.1 Aqueous solubility: This assay was conducted as previously described in [4].
The nature of data set [6]: ChromLogD pH7.4 (chromatographic hydrophobicity index). It counts as physicochemical. To be noted: pH 7.4; CHIpH7.4 × 0.0857–2; read-out: ChromlogDpH7.4.
In data set [7] the test system is intracellular T. cruzi X10/7-E2Crimson. Put plainly: Rate-of-kill studies. The format is cell-based, Trypanosoma cruzi. The conditions noted are these: compared with posaconazole (CYP51 inhibitor). On the procedure: 1.3 Rate-of-kill studies: Experiments with intracellular T. cruzi X10/7-E2Crimson were carried out as previously described in [2].
For data set [8], the system named is T. cruzi. Put plainly: Acute Chagas disease mouse efficacy study (bioluminescence imaging). The format is in vivo, Trypanosoma cruzi. On the procedure:
as §1, with “Compound 1 was dosed twice daily at 50 mg/kg for 5 days in an acute Chagas disease mouse efficacy study. This mouse model, developed by the Kelly laboratory, is able to distinguish between benznidazole (clinically effective) and posaconazole (clinically ineffective).” left out
Fig. 2 Results of acute T. cruzi infection efficacy study. […] 5 day dosing begins on day 14 (b) Quantification (Total Flux [p/s]) of combined ventral and dorsal bioluminescence for the mice shown in (c). […] (For interpretation of the references to colour in this figure legend, the reader is referred to the Web version of this article.) […]

Data set [9] in a line: Blood exposure in the acute efficacy study. It counts as in vivo, mouse. The conditions noted are these: days 1 and 5; 50 mg/kg b.i.d. with 1-ABT. The protocol: as §1, with “Compound 1 was dosed twice daily at 50 mg/kg for 5 days in an acute Chagas disease mouse efficacy study. This mouse model, developed by the Kelly laboratory, is able to distinguish between benznidazole (clinically effective) and posaconazole (clinically ineffective).” left out
Fig. 2 Results of acute T. cruzi infection efficacy study. […] 5 day dosing begins on day 14 (b) Quantification (Total Flux [p/s]) of combined ventral and dorsal bioluminescence for the mice shown in (c). […] (For interpretation of the references to colour in this figure legend, the reader is referred to the Web version of this article.)

Data set [10] has as its system intracellular T. cruzi. Also noted: method as in PMID 25740547. The conditions noted are these: HTS in NIH-3T3 fibroblasts; cited from earlier work.

A word on the solubility: it is the dissolved amount per volume that the medium holds. Regarding `Cc1ccc(S(=O)(=O)Nc2ccc(CN3CCN(C(=O)c4cccc(Cl)c4)CC3)cc2)cc1` [Compound 1, N-(4-((4-(3-chlorobenzoyl)piperazin-1-yl)methyl)phenyl)-4-methylbenzenesulfonamide], the EC50 in [1] was 0.158 µM. Moreover, in [2] (20- to 30-fold the EC50 for 8 days, re-supplemented after 4 days), the “Time after washout until parasite relapse was observed” value is reported as about 2 weeks. For the same molecule, the “Relapse Day” value in data set [2] (experiment a, 5 µM, 32-fold EC50) was 11 days; in data set [2] (experiment b, 5.5 µM, 35-fold EC50) it was 14 days; in [2] (experiment c, 3.9 μM, 25-fold EC50, day after washout on which egressed parasites first detected), 11 days. Further, the IC50 in [3] was 20 µM. For the same molecule, the “Mouse CLi” value in [4] was over 50 mL/min/g. In addition, the solubility in data set [5] was 38 µM (≈ 18.4 µg/mL). Besides, in data set [6], the chromatographic logD was determined as 5.8. The Rate-of-kill profile entry in [7] is on record as “faster kill profile”. Besides, the Outcome after immunosuppression result in [8] (50 mg/kg b.i.d. for 5 days with 1-ABT, cyclophosphamide 200 mg/kg i.p. days 28, 32, 36) is on record as “relapse is observed post immunosuppression”. Also, the Parasite burden result in [8] (50 mg/kg b.i.d. for 5 days, 1-ABT 50 mg/kg pre-treatment, compared to vehicle) was “reduction in parasite burden compared to vehicle”. Also, in data set [9], the “Total blood exposure relative to in vitro EC99” value is “exceeded the in vitro EC99 for the duration of dosing”.
For `Cc1ccc(S(=O)(=O)Nc2ccc(CN3CCN(C(=O)c4cccc(C#N)c4)CC3)cc2)cc1` [TCMDC-143497], in data set [4], the “Mouse CLi” value is 30 mL/min/g. The molecule also registered a solubility in [5] of 85 µM (≈ 40.3 µg/mL). Besides, the chromatographic logD in data set [6] was found to be 4.8. For the same molecule, the “T. cruzi pEC50 (reported potency)” value in [10] was 6.4.
Take `CC[C@@H]([C@H](C)O)n1ncn(-c2ccc(N3CCN(c4ccc(OC[C@@H]5CO[C@@](Cn6cncn6)(c6ccc(F)cc6F)C5)cc4)CC3)cc2)c1=O` [posaconazole]: the “Relapse Day” value in data set [2] (experiment a, 0.2 µM, 50-fold EC50) came to 7 days; in data set [2] (experiment b, 0.2 µM, 50-fold EC50), 11 days; in data set [2] (experiment c, 0.1 μM, 25-fold EC50) it was 7 days.
For the molecule `O=C(Cn1ccnc1[N+](=O)[O-])NCc1ccccc1` [benznidazole], the “Relapse Day” value in data set [2] (experiment a, replicate 1, 36 µM, 12.5-fold EC50) was 18 days; in [2] (experiment a, replicate 2, 36 µM, 12.5-fold EC50), 14 days; in data set [2] (experiment b, 36 µM, 12.5-fold EC50), 14 days; in [2] (experiment c, 36 μM, 12.5-fold EC50) it was 18 days; in [2] (experiment c, 144 μM, 50-fold EC50, observed up to 60 days), over 60 days.
